The target in the assay is T1, OGDH (Rattus norvegicus, UniProt Q5XI78).
T1 construct: the tissue fractions with the complexes enriched to a degree allowing for a robust detection of the enzymatic activities, have been used; from tissue; host or cells: rat liver
T1 sequence (Q5XI78 41-1023): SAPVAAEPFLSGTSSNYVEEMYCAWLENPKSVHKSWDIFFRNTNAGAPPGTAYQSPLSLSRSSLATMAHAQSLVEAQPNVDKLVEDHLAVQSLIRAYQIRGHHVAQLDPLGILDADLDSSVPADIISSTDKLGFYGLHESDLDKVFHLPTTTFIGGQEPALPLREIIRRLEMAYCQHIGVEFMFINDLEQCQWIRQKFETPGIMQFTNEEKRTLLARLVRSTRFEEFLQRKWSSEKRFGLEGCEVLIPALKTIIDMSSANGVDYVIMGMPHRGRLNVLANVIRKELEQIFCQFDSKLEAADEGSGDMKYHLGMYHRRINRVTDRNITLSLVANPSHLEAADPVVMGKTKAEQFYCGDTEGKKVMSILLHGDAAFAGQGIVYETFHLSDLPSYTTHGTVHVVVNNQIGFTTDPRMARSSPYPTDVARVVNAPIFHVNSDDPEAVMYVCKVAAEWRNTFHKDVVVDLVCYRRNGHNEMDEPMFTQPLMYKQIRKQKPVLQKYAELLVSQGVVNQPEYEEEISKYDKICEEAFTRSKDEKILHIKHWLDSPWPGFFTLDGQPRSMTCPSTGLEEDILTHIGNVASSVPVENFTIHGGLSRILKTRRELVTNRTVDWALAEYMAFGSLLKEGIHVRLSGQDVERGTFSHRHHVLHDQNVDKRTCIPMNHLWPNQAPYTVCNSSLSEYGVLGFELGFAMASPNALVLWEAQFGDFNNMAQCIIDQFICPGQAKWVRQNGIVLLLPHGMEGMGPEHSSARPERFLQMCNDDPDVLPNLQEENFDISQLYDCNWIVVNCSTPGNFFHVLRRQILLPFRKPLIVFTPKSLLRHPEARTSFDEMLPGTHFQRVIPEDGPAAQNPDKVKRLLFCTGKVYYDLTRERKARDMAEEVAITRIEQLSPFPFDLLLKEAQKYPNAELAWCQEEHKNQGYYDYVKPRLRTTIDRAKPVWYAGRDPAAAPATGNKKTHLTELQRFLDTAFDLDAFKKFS
Nature of the assay: OADH reaction catalyzed by the enzyme preparation from rat liver, high [OA] (low-affinity OA sites). It is filed as biochemical. The following applies: for Amax: low-affinity sites. The procedure: Enzymes catalyzing OGDH and OADH reactions were enriched from rat hearts and livers using polyethylene glycol precipitation, as previously described (Artiukhov et al., [2020]).
The enzyme activities were assayed in the medium (pH 7.0) containing 50 mM MOPS, 1 mM ThDP, 1 mM MgCl2, 1 mM CaCl2, 1 mM dithiothreitol 0.15 mM Coenzyme A, 0.25 mM NAD^+ and various concentrations of 2-oxo substrates (0–10 mM OG or OA) and their phosphonate analogs (0–5,000 μM SP, GP, or AP). Reactions were started by addition of the enzyme preparations to the assay media. The amount of enzyme preparations (0.074 mg protein for the preparation from liver and 0.023 mg protein for the preparation from heart) were chosen to induce the lowest reliably measured reaction rate (ΔA340 = 0.001/min) at 0.01 mM OA without the phosphonates.
Reaction rates were calculated from linear parts of the product accumulation curves (up to 10 min, dependent on the reaction rate), excluding the initial region, where mixing the reagents and solubilization of the preparation affected the optical density.
Non-linear regression was used to approximate the experimental dependences of the reaction rates on the OG or OA concentration according to the Michaelis-Menten equation ( a=Amax*[S]/Km+[S] ) or its sum ( a=Amax*[S]/Km+[S]+Amax,2*[S]/Km,2+[S] ). The former equation describes one type of the active sites. […] The assumption was based on the presence of the two enzymes, OGDH and OADH, in the employed preparations.
The kinetic data were also analyzed by linear regression, using the known methods of the linearization of the Michaelis-Menten equation in the Lineweaver-Burk ( 1/a=1/Amax(1+Km/[S]) ) and Eadie-Hofstee ( a=Amax−Kmv/[S] ) coordinates. Due to the several orders of magnitude difference in the values of Km,1 and Km,2, the linear regression required separate analysis of the dependencies in the intervals of the low and high concentrations of 2-oxoadipate. The Km and Amax values obtained in independent experiments using the non-linear and linear regression analyses of the experimental data, were averaged and presented as Mean ± Standard Error of Mean.
To determine the inhibition constants (Ki), the effective values of Kmeff and Amaxeff , calculated from the hyperbolic or linear approximations as described above, were plotted against the concentration of the inhibitors ([I]). The linear regression of the equation Kmeff/Amaxeff=Km/Amax(1+[I]/Ki) , (Cornish-Bowden, [1979]) was applied to find the Intercept (Km/Amax) and Slope (Km/(Amax*Ki)) of a dependence. The values of Ki were determined as the ratio of the corresponding Intercepts to the Slopes. In the two-site model, the Ki(1) and Ki(2) were calculated separately from the linear approximations of Km,1eff/Amax,1eff vs. [I] and Km,2eff/Amax,2eff vs. [I] dependences, respectively. The standard errors of Ki were determined from means and standard errors of the Intercepts and the Slopes, using the previously described formula for standard deviation of a fraction (Bunik et al., [1999]). The Ki values obtained from the non-linear and linear regression analyses of the experimental data were averaged and presented as Mean ± Standard Error of Mean.

Where [1] appears, read: high [OA] 0.1–10 mM, Michaelis-Menten, read-out: Ki, MM.
Setting [2] is: high [OA], Eadie-Hofstee, read-out: Ki, EH.
Where [3] appears, read: high [OA], Lineweaver-Burk, read-out: Ki, LB.
[4] abbreviates: high [OA], average, read-out: Ki, Average.

Each structure is given as a SMILES string. Read-outs that look alike come from different tables or passages of the source.

Regarding `O=C(O)CCCC(=O)P(=O)(O)O` [GP, glutaryl phosphonate], the Amax is on record as 0.0088 ± 0.0004 µmol/min per mg of protein ([I] 2 µM), 0.0093 ± 0.0005 µmol/min per mg of protein ([I] 10 µM) and 0.0056 ± 0.0001 µmol/min per mg of protein ([I] 50 µM). For the same molecule, the inhibition constant Ki (usually the dissociation constant of the complex between target and ligand, obtained from inhibition or displacement) was 1400 ± 200 nM under setting [1], 1300 ± 300 nM under setting [2], 1300 ± 300 nM under setting [3] and 1300 ± 200 nM under setting [4].
Consider `O=C(O)CCC(=O)P(=O)(O)O` [SP, succinyl phosphonate], for which the Amax is on record as 0.0080 ± 0.0004 µmol/min per mg of protein ([I] 10 µM) and 0.0074 ± 0.0002 µmol/min per mg of protein ([I] 50 µM). The inhibition constant (Ki) under setting [1] came to 3700 ± 100 nM, the Ki under setting [2] is 2500 ± 400 nM, the Ki under setting [3] was determined as 2100 ± 400 nM and the Ki under setting [4] amounted to 2800 ± 500 nM.
As to `O=C(O)CCCCC(=O)P(=O)(O)O` [AP, adipoyl phosphonate], the Amax is 0.0084 ± 0.0002 µmol/min per mg of protein ([I] 0.5 µM); 0.0085 ± 0.0002 µmol/min per mg of protein ([I] 2 µM); 0.0090 ± 0.0003 µmol/min per mg of protein ([I] 10 µM); 0.0096 ± 0.0002 µmol/min per mg of protein ([I] 50 µM); 0.0097 ± 0.0010 µmol/min per mg of protein ([I] 200 µM). For the same molecule, the Ki stood at 50000 ± 2000 nM under setting [1], 47000 ± 2000 nM under setting [2], 46000 ± 2000 nM under setting [3] and 47000 ± 1000 nM under setting [4].
